Values of other authors, collected in patent US11395831B2, “Combination products of tobramycin compounds and dexameihasone compounds” (Somerset Therapeutics, LLC, priority 2020, dated 2022).
Values after ≈ are worked out from the molar mass of the structure shown.

solubility in water: 94 mg/mL (≈ 201 mM)
Compound: NC[C@H]1O[C@H](O[C@H]2[C@H](O)[C@@H](O[C@H]3O[C@H](CO)[C@@H](O)[C@H](N)[C@H]3O)[C@H](N)C[C@@H]2N)[C@H](N)C[C@@H]1O [tobramycin, 0-{3-amino-3-deoxy-α-D-gluco-pyranosyl-(1→4)}-0-{2,6-diamino-2,3,6-trideoxy-α-D-ribohexo-pyranosyl-(1→6)}-2-deoxystreptamine]
